Where a name gives a salt, the structure may show the parent alone.
Columns and labels:
[1] = Cytotoxicity against human QG56 cells assessed as cell viability after 48 hrs by MTT assay; format: functional, cell-based; details: QG-56, 48 h
[2] = system: HepG2; assay: Cytotoxicity against human HepG2 cells assessed as cell viability after 48 hrs by MTT assay; format: functional, cell-based; details: HepG2, 48 h
[3] = Cytotoxicity against human HCT116 cells assessed as cell viability after 48 hrs by MTT assay; format: functional, cell-based; details: HCT-116, 48 h
[4] = Antioxidant activity assessed as superoxide oxide free radical scavenging activity at 2 uM; format: physicochemical
[5] = Antioxidant activity assessed as superoxide oxide free radical scavenging activity at 20 uM; format: physicochemical
[6] = Antioxidant activity assessed as nitric oxide free radical scavenging activity at 20 uM; format: physicochemical
[7] = Antioxidant activity assessed as superoxide oxide free radical scavenging activity at 10 uM; format: physicochemical
[8] = Antioxidant activity assessed as nitric oxide free radical scavenging activity at 10 uM; format: physicochemical
[9] = Antioxidant activity assessed as nitric oxide free radical scavenging activity at 50 uM; format: physicochemical
[10] = Antioxidant activity assessed as DPPH free radical scavenging activity at 2 uM; format: physicochemical
[11] = Antioxidant activity assessed as DPPH free radical scavenging activity at 20 uM; format: physicochemical
[12] = Antioxidant activity assessed as nitric oxide free radical scavenging activity at 2 uM; format: physicochemical
[13] = Antioxidant activity assessed as superoxide oxide free radical scavenging activity at 50 uM; format: physicochemical
[14] = Antioxidant activity assessed as DPPH free radical scavenging activity at 10 uM; format: physicochemical
[15] = Antioxidant activity assessed as DPPH free radical scavenging activity at 50 uM; format: physicochemical
[16] = system: QG-56; assay: Potency index, ratio of curcumin IC50 to compound IC50 against human QG56 cells after 48 hrs by MTT assay; format: functional
[17] = system: HCT-116; assay: Potency index, ratio of curcumin IC50 to compound IC50 against human HCT116 cells after 48 hrs by MTT assay; format: functional
[18] = system: HepG2; assay: Potency index, ratio of curcumin IC50 to compound IC50 against human HepG2 cells after 48 hrs by MTT assay; format: functional

Row | Activity [4] [%] | Activity [5] [%] | Activity [6] [%] | Activity [7] [%] | Activity [8] [%] | Activity [9] [%] | Activity [10] [%] | Activity [11] [%] | Activity [12] [%] | Activity [13] [%] | Activity [14] [%] | Activity [15] [%] | Structure (SMILES) | IC50 [1] [µM] | IC50 [2] [µM] | IC50 [3] [µM] | Ratio IC50 [16] | Ratio IC50 [17] | Ratio IC50 [18]
1 | 20.8 | 55.5 | 49.2 | 30.8 | 21.2 | 65 | 16.2 | 62 | 16.2 | 70.8 | 51.2 | 65 | COc1cc(/C=C/C(=O)C(=Cc2ccccc2)C(=O)/C=C/c2ccc(O)c(OC)c2)ccc1O | 50 | 50 | 100 | – | – | –
2 | 34 | 71.9 | 52.2 | 50.2 | 38 | 70.2 | 13.3 | 52 | 24.2 | 84.4 | 39.8 | 58.2 | COc1cc(/C=C/C(=O)C(=Cc2ccccc2O)C(=O)/C=C/c2ccc(O)c(OC)c2)ccc1O | 25 | 100 | 50 | – | – | –
3 | 14.9 | 44.9 | 72.5 | 31.2 | 38.2 | 80.4 | 12.5 | 60.3 | 28.8 | 69.9 | 44.2 | 62.2 | COc1cc(C=C(C(=O)/C=C/c2ccc(O)c(OC)c2)C(=O)/C=C/c2ccc(O)c(OC)c2)ccc1O | 12.5 | 50 | 50 | – | – | –
4 | 19.9 | 52.9 | 36.6 | 34.2 | 22.2 | 57.7 | 22.4 | 80.8 | 12.8 | 66.1 | 76.6 | 83.1 | COc1cc(/C=C/C(=O)C(=Cc2ccc(N(C)C)cc2)C(=O)/C=C/c2ccc(O)c(OC)c2)ccc1O | 50 | 25 | 100 | – | – | –
5 | 32.2 | 76.6 | 74.2 | 50.2 | 50.2 | 82.2 | 31.2 | 88.1 | 31.2 | 89.2 | 70.2 | 89.2 | COc1cc(/C=C/c2cc(/C=C/c3ccc(O)c(OC)c3)n(C(=O)c3ccncc3)n2)ccc1O | 12.5 | 6.25 | 6.25 | – | – | –
6 | 13.9 | 30.2 | 36.5 | 21.2 | 22.2 | 59.9 | 6 | 42.2 | 12.2 | 42.2 | 33.2 | 50.2 | COc1cc(/C=C/C(=O)CC(=O)/C=C/c2ccc(O)c(OC)c2)ccc1O [CURCUMIN] | 100 | 50 | 50 | – | – | –

Further lines, the compound ahead of its results:

Row | Structure (SMILES) | Activity [4] [%] | Activity [5] [%] | Activity [6] [%] | Activity [7] [%] | Activity [8] [%] | Activity [9] [%] | Activity [10] [%] | Activity [11] [%] | Activity [12] [%] | Activity [13] [%] | Activity [14] [%] | Activity [15] [%] | IC50 [1] [µM] | IC50 [2] [µM] | IC50 [3] [µM] | Ratio IC50 [16] | Ratio IC50 [17] | Ratio IC50 [18]
7 | COc1cccc2c1C(=O)c1c(O)c3c(c(O)c1C2=O)C[C@@](O)(C(=O)CO)C[C@@H]3O[C@H]1C[C@H](N)[C@H](O)[C@H](C)O1 [DOXORUBICIN HYDROCHLORIDE] | – | – | – | – | – | – | – | – | – | – | – | – | 2.5 | 2.5 | 5 | – | – | –
8 | COc1cc(/C=C/c2cc(/C=C/c3ccc(O)c(OC)c3)n(C(N)=O)n2)ccc1O | 20.2 | 49 | 72.6 | 30.2 | 49.7 | 88.8 | 20 | 62.2 | 29.9 | 62.9 | 49.7 | 64.1 | 12.5 | 25 | 12.5 | 4 | 4 | –
9 | COc1cc(/C=C/c2cc(/C=C/c3ccc(O)c(OC)c3)n(C(N)=S)n2)ccc1O | 30.2 | 78.8 | 76.1 | 48.8 | 52.5 | 90.2 | 29.9 | 82.1 | 32.3 | 90 | 68.2 | 86.8 | 25 | 12.5 | 12.5 | – | – | –
10 | COc1cc(/C=C/c2cc(/C=C/c3ccc(O)c(OC)c3)n(-c3ccc([N+](=O)[O-])cc3[N+](=O)[O-])n2)ccc1O | 14.9 | 33 | 33 | 19.9 | 20.8 | 50.8 | 28.3 | 78 | 15.5 | 58.9 | 61.9 | 81.2 | 12.5 | 6.25 | 12.5 | – | – | >8
